Values quoted from earlier work, collected in US10172922B2, “Rapid-acting insulin compositions” (Eli Lilly and Company, priority 2014, dated 2019).

Details: on a molar basis

For “28^B-L-Lysine-29^B-L-proline human insulin [Insulin lispro]”, which “Potency relative to human insulin” value is on record?
Its value is “equipotent to human insulin on a molar basis”.
